Target: T1, CDK4/cyclin D3 (Homo sapiens, UniProt P11802)
T1 construct: made in house; host or cells: insect cells (baculovirus co-infection)
Experiment: Inhibition of CDK4/Cyclin D retinoblastoma kinase activity
Type: biochemical
Conditions: for inhibition at 0.1 µM: read-out: % Inhib CDK4/D @ 0.1 μM; for inhibition at 1 µM: read-out: % Inhib CDK4/D @ 1 μM; for inhibition at 0.03 µM: read-out: % Inhib CDK4/D @ 0.03
Experimental: Cyclin-dependent kinase activity was measured by quantifying the enzyme-catalyzed, time-dependent incorporation of radioactive phosphate from [^32P]ATP or [^33P]ATP into a protein substrate. Unless noted otherwise, assays were performed in 96-well plates in a total volume of 50 μL, in the presence of 10 mM HEPES (N-[2-hydroxyethyl]piperazine-N′-[2-ethanesulfonic acid]) (pH 7.4), 10 mM MgCl2, 25 μM adenosine triphosphate (ATP), 1 mg/mL ovalbumin, 5 μg/mL leupeptin, 1 mM dithiothreitol, 10 mM β-glycerophosphate, 0.1 mM sodium vanadate, 1 mM sodium fluoride, 2.5 mM ethylene glycol-bis(β-aminoethyl ether)-N,N,N′N′-tetraacetic acid (EGTA), 2% (v/v) dimethylsulfoxide, and 0.03-0.4 μCi [^32/33P]ATP per reaction. Reactions were initiated with enzyme, incubated at 30° C., and terminated after 20 minutes by the addition of ethylenediaminetetraacetic acid (EDTA) to 250 mM. The phosphorylated substrate was then captured on a nitrocellulose or phosphocellulose membrane using a 96-well filtration manifold, and unincorporated radioactivity was removed by repeated washing with 0.85% phosphoric acid. Radioactivity was quantified by exposing the dried membranes to a phosphorimager.
Inhibition was measured relative to control wells that contained all reaction components including 2% (v/v) DMSO but no compound, after subtraction of background radioactivity measured in the absence of enzyme. Apparent Ki values of discrete compounds were measured by assaying enzyme activity in the presence of different inhibitor compound concentrations and subtracting the background radioactivity measured in the absence of enzyme. The kinetic parameters (kcat, Km for ATP) were measured for each enzyme under the usual assay conditions by determining the dependence of initial rates on ATP concentration. Inhibition data were fit to an equation for competitive inhibition using Kaleidagraph (Synergy Software), or were fit to an equation for competitive tight-binding inhibition using the software KineTic (BioKin, Ltd.).
A complex of human CDK4 and genetically truncated (1-264) cyclin D3 was purified using traditional biochemical chromatographic techniques from insect cells that had been co-infected with the corresponding baculovirus expression vectors (see e.g., Meijer and Kim, “Chemical Inhibitors of Cyclin-Dependent Kinases,” Methods in Enzymol., 283, 113-128 (1997)). The enzyme complex (5 nM) was assayed with 0.3-0.5 μg of purified recombinant retinoblastoma protein fragment (Rb) as a substrate. The engineered Rb fragment (residues 386-928 of the native retinoblastoma protein; 62.3 kDa) contains the majority of the phosphorylation sites found in the native 106-kDa protein, as well as a tag of six histidine residues for ease of purification. Phosphorylated Rb substrate was captured by microfiltration on a nitrocellulose membrane and quantified using a phosphorimager as described above. For measurement of tight-binding inhibitors, the assay duration was extended to 60 minutes, during which the time-dependence of product formation was linear and initial rate conditions were met.

[1] = test compound at 1 μM (head line shifted: 'mM' printed beside 'Structure')
[2] = test compound at 0.03 (unit cell empty, head line shifted; μM)

T1 sequence (P11802 whole entry): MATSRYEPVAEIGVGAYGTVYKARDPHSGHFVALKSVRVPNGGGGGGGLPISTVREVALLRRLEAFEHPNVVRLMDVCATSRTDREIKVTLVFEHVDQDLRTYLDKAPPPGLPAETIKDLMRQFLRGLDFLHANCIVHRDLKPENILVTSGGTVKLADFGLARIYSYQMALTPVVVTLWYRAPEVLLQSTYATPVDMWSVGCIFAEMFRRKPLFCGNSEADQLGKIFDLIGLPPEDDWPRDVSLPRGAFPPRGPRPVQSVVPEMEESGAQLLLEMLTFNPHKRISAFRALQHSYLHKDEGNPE
T1 sequence (P30281 1-264 partner limits assumed): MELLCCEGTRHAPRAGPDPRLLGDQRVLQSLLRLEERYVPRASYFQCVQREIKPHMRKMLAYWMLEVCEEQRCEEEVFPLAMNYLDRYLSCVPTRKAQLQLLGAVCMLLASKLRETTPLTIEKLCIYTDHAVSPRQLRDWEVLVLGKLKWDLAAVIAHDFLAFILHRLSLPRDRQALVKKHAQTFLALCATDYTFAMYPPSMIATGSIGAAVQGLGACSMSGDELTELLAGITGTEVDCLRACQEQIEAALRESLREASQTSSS

SMILES | inhibition at 0.1 µM (test compound at 0.1 μM) [%] | inhibition at 1 µM [1] [%] | inhibition at 0.03 µM [2] [%] | % Inhib CDK4/D @ 0.1 μM (test compound at 0.1 μM, 0.1 µM) [%] | % Inhib CDK4/D @ 1 μM (test compound at 1 μM (head line shifted: 'mM' printed beside 'Structure'), 1 µM) [%] | % Inhib CDK4/D @ 0.03 [2] [%]
CCN(CC)C(=O)CSc1ccc(Nc2nc(N)c(C(=O)c3c(Cl)cccc3Cl)s2)cc1 [DD(1)] | -19 | 46.9 | -34 | – | – | –
Cc1noc(C)c1CSc1ccc(Nc2nc(N)c(C(=O)c3c(Cl)cccc3Cl)s2)cc1 [DD(2)] | 19 | 74 | 37 | – | – | –
CC(CSc1ccc(Nc2nc(N)c(C(=O)c3c(Cl)cccc3Cl)s2)cc1)CN(C)C (stereo not drawn) [DD(3)] | 0.2 | 43.6 | 8.1 | – | – | –
COC(=O)/C=C/CSc1ccc(Nc2nc(N)c(C(=O)c3c(Cl)cccc3Cl)s2)cc1 [DD(4)] | 11 | 49.1 | 5.4 | – | – | –
Nc1nc(Nc2ccc(SCCCO)cc2)sc1C(=O)c1c(Cl)cccc1Cl [DD(5)] | 40 | 85.2 | 21 | – | – | –
C=CCCSc1ccc(Nc2nc(N)c(C(=O)c3c(Cl)cccc3Cl)s2)cc1 [DD(6)] | 20 | 48 | 22 | – | – | –
Nc1nc(Nc2ccc(SCCN3CCCC3)cc2)sc1C(=O)c1c(Cl)cccc1Cl [DD(7)] | 31 | 55 | 11 | – | – | –
Nc1nc(Nc2ccc(SCc3ncon3)cc2)sc1C(=O)c1c(Cl)cccc1Cl [DD(8)] | 43 | 82.1 | 16 | – | – | –
Nc1nc(Nc2ccc(SCC3CNC(=O)O3)cc2)sc1C(=O)c1c(Cl)cccc1Cl (stereo not drawn) [DD(9)] | -14 | 40.3 | -28 | – | – | –
CN(C)CCCSc1ccc(Nc2nc(N)c(C(=O)c3c(Cl)cccc3Cl)s2)cc1 [DD(10)] | 6.6 | 54.5 | 2.6 | – | – | –
Nc1nc(Nc2ccc(SCCN3CCCCC3)cc2)sc1C(=O)c1c(Cl)cccc1Cl [DD(11)] | 28 | 78.1 | 4.2 | – | – | –
Nc1nc(Nc2ccc(SCC3CO3)cc2)sc1C(=O)c1c(Cl)cccc1Cl (stereo not drawn) [DD(12)] | 19 | 72 | 3.9 | – | – | –
CC(C)CCSc1ccc(Nc2nc(N)c(C(=O)c3c(Cl)cccc3Cl)s2)cc1 [DD(13)] | 4.7 | 35.3 | 0.6 | – | – | –
COCCSc1ccc(Nc2nc(N)c(C(=O)c3c(Cl)cccc3Cl)s2)cc1 [DD(14)] | 41 | 80 | 18 | – | – | –
Nc1nc(Nc2ccc(SCC(=O)Nc3ccccc3)cc2)sc1C(=O)c1c(Cl)cccc1Cl [DD(15)] | 53 | 82 | 38 | – | – | –
Nc1nc(Nc2ccc(SCC3CC3)cc2)sc1C(=O)c1c(Cl)cccc1Cl [DD(16)] | -7 | 56.2 | -9.4 | – | – | –
COc1cccc(CSc2ccc(Nc3nc(N)c(C(=O)c4c(Cl)cccc4Cl)s3)cc2)c1 [DD(17)] | -3 | 28.3 | -9.5 | – | – | –
Nc1nc(Nc2ccc(SCC3CCCO3)cc2)sc1C(=O)c1c(Cl)cccc1Cl (stereo not drawn) [DD(18)] | 9.9 | 70.6 | 10 | – | – | –
CN1CCCC1CCSc1ccc(Nc2nc(N)c(C(=O)c3c(Cl)cccc3Cl)s2)cc1 (stereo not drawn) [DD(19)] | 19 | 82.9 | -3 | – | – | –
CC1(CSc2ccc(Nc3nc(N)c(C(=O)c4c(Cl)cccc4Cl)s3)cc2)CO1 (stereo not drawn) [DD(20)] | 6.8 | 68.2 | 4.2 | – | – | –
NC(=O)CSc1ccc(Nc2nc(N)c(C(=O)c3c(Cl)cccc3Cl)s2)cc1 [DD(21)] | 67 | 85.5 | 50 | – | – | –
CCOC(=O)CCSc1ccc(Nc2nc(N)c(C(=O)c3c(Cl)cccc3Cl)s2)cc1 [DD(22)] | 9.1 | 56.2 | 8.1 | – | – | –

SMILES | inhibition at 0.1 µM (test compound at 0.1 μM) [%] | inhibition at 1 µM [1] [%] | inhibition at 0.03 µM [2] [%] | % Inhib CDK4/D @ 0.1 μM (test compound at 0.1 μM, 0.1 µM) [%] | % Inhib CDK4/D @ 1 μM (test compound at 1 μM (head line shifted: 'mM' printed beside 'Structure'), 1 µM) [%] | % Inhib CDK4/D @ 0.03 [2] [%]
CC(C)OC(=O)CSc1ccc(Nc2nc(N)c(C(=O)c3c(Cl)cccc3Cl)s2)cc1 [DD(23)] | 37 | 72.1 | 19 | – | – | –
CC(C)=CCSc1ccc(Nc2nc(N)c(C(=O)c3c(Cl)cccc3Cl)s2)cc1 [DD(24)] | -3 | 42.5 | -17 | – | – | –
CCCSc1ccc(Nc2nc(N)c(C(=O)c3c(Cl)cccc3Cl)s2)cc1 [DD(25)] | 0.4 | 65.5 | -10 | – | – | –
COC(=O)CSc1ccc(Nc2nc(N)c(C(=O)c3c(Cl)cccc3Cl)s2)cc1 [DD(26)] | 65 | 87.5 | 9 | – | – | –
CN1CCCC(CSc2ccc(Nc3nc(N)c(C(=O)c4c(Cl)cccc4Cl)s3)cc2)C1 (stereo not drawn) [DD(27)] | 10 | 58.7 | -2.6 | – | – | –
NC(=O)CCSc1ccc(Nc2nc(N)c(C(=O)c3c(Cl)cccc3Cl)s2)cc1 [DD(28)] | 51 | 86.8 | 19 | – | – | –
NC(=O)CCSc1ccc(Nc2nc(N)c(C(=O)c3c(Cl)cccc3Cl)s2)cc1 [DD(29)] | – | – | – | 50 | 87.2 | 24
CC(C)CCCSc1ccc(Nc2nc(N)c(C(=O)c3c(Cl)cccc3Cl)s2)cc1 [DD(30)] | 13 | 32.3 | 3.1 | – | – | –
CC(C)CCOC(=O)CSc1ccc(Nc2nc(N)c(C(=O)c3c(Cl)cccc3Cl)s2)cc1 [DD(31)] | 30 | 59.7 | 15 | – | – | –
CN(C)CCSc1ccc(Nc2nc(N)c(C(=O)c3c(Cl)cccc3Cl)s2)cc1 [DD(32)] | 14 | 61.3 | 5.5 | – | – | –
CCOCCSc1ccc(Nc2nc(N)c(C(=O)c3c(Cl)cccc3Cl)s2)cc1 [DD(33)] | 21 | 64.7 | 8.1 | – | – | –
Nc1nc(Nc2ccc(SCC(O)CO)cc2)sc1C(=O)c1c(Cl)cccc1Cl (stereo not drawn) [DD(34)] | 52 | 89.3 | 32 | – | – | –
Nc1nc(Nc2ccc(SCc3ccncc3)cc2)sc1C(=O)c1c(Cl)cccc1Cl [DD(35)] | 42 | 76.8 | 12 | – | – | –
CCC(CC)CSc1ccc(Nc2nc(N)c(C(=O)c3c(Cl)cccc3Cl)s2)cc1 [DD(36)] | 18 | 49.6 | 9 | – | – | –
CC(=O)OCCSc1ccc(Nc2nc(N)c(C(=O)c3c(Cl)cccc3Cl)s2)cc1 [DD(37)] | 30 | 74.3 | 13 | – | – | –
CC(C)OC(=O)CCSc1ccc(Nc2nc(N)c(C(=O)c3c(Cl)cccc3Cl)s2)cc1 [DD(38)] | 32 | 57.8 | 6.5 | – | – | –
Nc1nc(Nc2ccc(SCCN3CCOCC3)cc2)sc1C(=O)c1c(Cl)cccc1Cl [DD(39)] | 18 | 68.4 | 0.2 | – | – | –
CC(C)(CO)CSc1ccc(Nc2nc(N)c(C(=O)c3c(Cl)cccc3Cl)s2)cc1 [DD(40)] | 23 | 50.3 | -1.2 | – | – | –
CCN(CC)C(=O)CSc1cccc(Nc2nc(N)c(C(=O)c3c(Cl)cccc3Cl)s2)c1 [DD(41)] | 33 | 70.3 | 28 | – | – | –
Cc1noc(C)c1CSc1cccc(Nc2nc(N)c(C(=O)c3c(Cl)cccc3Cl)s2)c1 [DD(42)] | 41 | 63.7 | 29 | – | – | –
CC(CSc1cccc(Nc2nc(N)c(C(=O)c3c(Cl)cccc3Cl)s2)c1)CN(C)C (stereo not drawn) [DD(43)] | 16 | 71.3 | 25 | – | – | –
